From PubChem BioAssay (NCI)
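Tested at 5 concentrations; 48 h exposure; 96-well plates; endpoints linearly interpolated, else capped at highest concentration. Definition used: TGI = concentration required for complete inhibition of growth.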

Experiments:
Test in all cases: inhibition of tumour cell growth, NCI panel, 48 h
786-0 renal = test system: 786-0 renal
A498 renal = test system: A498 renal
BT-549 breast = test system: BT-549 breast
DU-145 prostate = test system: DU-145 prostate
HCT-116 colon = test system: HCT-116 colon
MDA-N = test system: MDA-N
NCI/ADR-RES ovarian = test system: NCI/ADR-RES ovarian
SK-MEL-28 melanoma = test system: SK-MEL-28 melanoma
SK-MEL-5 melanoma = test system: SK-MEL-5 melanoma
SW-620 colon = test system: SW-620 colon
UO-31 renal = test system: UO-31 renal

Compound	TGI (786-0 renal) [µM]	TGI (A498 renal) [µM]	TGI (BT-549 breast) [µM]	TGI (DU-145 prostate) [µM]	TGI (HCT-116 colon) [µM]	TGI (MDA-N) [µM]	TGI (NCI/ADR-RES ovarian) [µM]	TGI (SK-MEL-28 melanoma) [µM]	TGI (SK-MEL-5 melanoma) [µM]	TGI (SW-620 colon) [µM]	TGI (UO-31 renal) [µM]
C/C(O)=C(\C=N\C(N)=S)C(=O)Nc1ccccc1C	> 100	> 100	> 100	> 100	> 100	> 100	> 100	> 100	> 100	> 100	> 100
COC(=O)c1sc(=S)sc1SCc1ccccc1CSc1sc(=S)sc1C(=O)OC	> 100	> 100	> 100	> 100	> 100	> 100	> 100	> 100	> 100	> 100	> 100
CCOC(=O)c1nc2c3c(ncn2n1)Oc1c(c(-c2ccccc2)nn1-c1ccccc1)C3c1ccc(Cl)cc1 (configuration not stated)	> 100	> 100	> 100	> 100	> 100	> 100	> 100	> 100	> 100	> 100	> 100
CNC(=O)CCC(NC(C)=O)C(=O)NC(Cc1ccc(NC(=O)CCCCC(C)=O)cc1)C(=O)NC(CCC(=O)NC)C(=O)NC (configuration not stated)	> 100	> 100	> 100	> 100	> 100	> 100	> 100	> 100	> 100	> 100	> 100
C/C(=C/CO[Si](C)(C)C(C)(C)C)C(=O)N(C)c1ccccc1I	31.7	31	35.8	36.7	25.8	31.9	37.1	35.7	29	35.8	28
N#Cc1c(Nc2ccc(F)cc2)[n+]([O-])c2ccc(Cl)cc2[n+]1[O-]	27.5	8.63	74.4	> 100	> 100	> 100	5.37	> 100	23.1	> 100	42.1
Clc1nc(-[n+]2ccc(-c3ccncc3)cc2)nc(Nc2ccccc2)c1Cl	> 100	> 100	> 100	> 100	> 100	> 100	> 100	> 100	> 100	> 100	> 100
